Here are results for six compounds from patent publication US8962578B2 (priority 2003, dated 2015).

Read-outs that look alike come from different tables or passages of the source.

Holding throughout (format): in vivo
The subject of test [1] is Pyricularia. The following applies: rice.
Test [2] relates to Pyricularia oryzae. The settings on record: rice, protective, evaluation 4 days after inoculation.
The test system of test [3] is Erysiphe graminis f.sp. hordei. The experiment in a line: Erysiphe test (barley)/protective. The following applies: protective, application rate 50 g/ha, evaluation 7 days after inoculation. As for the experimental part:
Erysiphe test (barley)/protective
Solvent: 50 parts by weight of dimethylformamide
Emulsifier: 1 part by weight of alkylaryl polyglycol ether
To produce a suitable preparation of active compound, 1 part by weight of active compound or a combination of active compound is mixed with the stated amounts of solvent and emulsifier, and the concentrate is diluted with water to the desired concentration, or a commercial formulation of active compound or active compound combination is diluted with water to the desired concentration.
To test for protective activity, young plants are sprayed with the preparation of active compound at the stated application rate.
1 day after the treatment, the plants are dusted with spores of Erysiphe graminis f.sp. hordei.
The plants are placed in a greenhouse at a temperature of about 20° C. and a relative atmospheric humidity of about 80% to promote the development of mildew pustules.
Evaluation is carried out 7 days after the inoculation. 0% means an efficacy which corresponds to that of the control, whereas an efficacy of 100% means that no infection is observed.

`N#Cc1ccccc1NC(=O)c1snc(Cl)c1Cl` [(I), 2′-cyano-3,4-dichloroisothiazole-5-carboxanilide]: the Efficacy in % is reported as 12.6% in test [1] (10 g/10 acres, b: inoculation two weeks after treatment) and 75% in test [1] (20 g/10 acres, b: inoculation two weeks after treatment).

Consider `CCC1(C(=O)NC(C)c2ccc(Cl)cc2)C(C)C1(Cl)Cl` (stereo not shown) [(II), N-[1-(4-chlorophenyl)ethyl]-2,2-dichloro-1-ethyl-3-methylcyclopropane-carboxamide], for which the Efficacy in % in test [2] (application rate 50 g/ha) came to 29%; in test [1] (100 g/10 acres, a: inoculation one week after treatment), 0%. Compound `CC(C)(C)C(O)(CCc1ccc(Cl)cc1)Cn1cncn1` (stereo not shown) [(IV-b)] yielded an Efficacy in % in test [2] (application rate 100 g/ha) of 0%. On the same count and under the same terms, the figure for `OC(Cc1ccccc1Cl)(Cn1nc[nH]c1=S)C1(Cl)CC1` (stereo not shown) [(IV-c), Prothioconazole] is 29%. For `CC(NC(=O)C(C#N)C(C)(C)C)c1ccc(Cl)cc1Cl` (stereo not shown) [(IX), diclocymet], the Efficacy in % in test [1] (10 g/10 acres, a: inoculation one week after treatment) is recorded as 37.5%; in test [1] (20 g/10 acres, a: inoculation one week after treatment), 83.2%; in test [1] (100 g/10 acres, b: inoculation two weeks after treatment) it was 27.8%. With `O=C(Nc1ccccc1)N(Cc1ccc(Cl)cc1)C1CCCC1` [(V)], the Efficacy in % in test [3] was determined as 0%.
